The text below walks through data of US9636377B2, “Compositions and methods for the treatment of retinal degeneration” (UNIVERSITE DE STRASBOURG, priority 2012, dated 2017).

For assay [1], the system named is peIF2α, CHOP10 and BiP. The assay can be described thus: Western blot of UPR proteins in retinal explants. The format is cell-based, mouse. The settings on record: shRNA-treated retinal explants. The procedure:
(§1) Wild-type animals were on a C57BL/6 background. The retinal explant culture procedure was carried out as previously described (Reidel et al., 2006). Briefly, 15-day-old mice were sacrificed by decapitation and eyes were removed and incubated in trypsin (catalog #25200-072, Gibco, Invitrogen, Paris, France) for 10 min at 37° C. Digestion was stopped by transferring eyes in DMEM+10% fetal bovine serum (catalog #31885-023 and 10500-064, Gibco) and incubation for 10 min at 4° C. Eyes were dissected in Ame's medium (catalog#15230-097, Gibco) supplemented with 6.5 g/L glucose. First, the sclera was carefully removed, leaving the retinal pigmented epithelium (RPE) attached to the eyeball. Incisions were made at the edge of the cornea to remove the cornea, lens and hyaloid body. Then four radial incisions were made in the retina to obtain a cross shape. Retinas were transferred on a nitrocellulose culture membrane (catalog # PICMORG50, Millipore, Molsheim, France) with RPE side down and cultivated in Neurobasal A medium (catalog #108888-022, Gibco) supplemented with B27 supplement (catalog #17504-044, Gibco), L-glutamine (catalog #35050-061, Gibco) and penicillin/streptomycin (catalog #15240; Gibco). Explants were maintained at 37° C. humidified 5% CO2. Specific gene silencing using lentiviruses carrying shRNA sequences for Bbs12, Perk, Hri or Rhodopsin (Santa Cruz Biotechnology, Tebu Bio, Yvelines, France) were performed by adding 20 μl of viral suspension (1×10^5 infectious units) in the culture medium overnight before whole medium change. The infected explants were then cultured for 3 days with a half medium change on a daily basis. Explants were not maintained longer in culture to avoid unspecific apoptosis in the different retinal layers. […] Drugs were added simultaneously with viral infection to the culture medium.
Proteins were obtained by lysis in RIPA buffer (150 mM NaCl, 50 mM TrisHCl pH 8, 0.1% Tween20, catalog # P7653, T3253, 93773, Sigma-Aldrich) supplemented with Protease Inhibitors Complete Mini EDTA-free (catalog #11836 170001, Roche, Boullogne-Billancourt, France), 1 mM NaVO4 and 25 mM NaF (catalog # S6508 and S7920, Sigma-Aldrich). After retina dissociation using dounce homogenizer, samples were sonicated and protein concentration was determined using Bradford reagent (catalog #500-0006, BioRad). For Western blotting, 80 μg of whole protein extracts were loaded per lane and Ponceau S staining was used as loading control for signal quantification. Antibody binding was visualized using SuperSignal West Femto Maximum Sensitivity Substrate (catalog #34095, ThermoFisher) on a Versadoc apparitus, BioRad. Signal quantification was assed using QuantityOne software from BioRad.
On the technique in general: A western blot detects proteins with antibodies after separation by electrophoresis.

Assay [2] deals with Bbs12 depleted retinal explants (photoreceptor apoptosis, ONL). The assay can be described thus: TUNEL assay, apoptotic rate of photoreceptors in shRNA-treated retinal explants. The format is cell-based, mouse. The following applies: shBbs12 explants; single treatments 2 mM VPA, 25 μM GBZ, 10 μM INH; 33% without treatment. The procedure:
as §1
For immunofluorescence experiments and TUNEL assay retinal explants were fixed directly on membranes with Formalin 10% for 1 hour at 4° C. Sucrose impregnation was then performed using 10%, 20% and 30% sucrose baths, 20 min each. Explants were transferred to OCT (catalog #4583, Tissue-Tek, Sakura, Villeneuve d′Ascq, France) in mold and frozen in liquid nitrogen. 8 μm thin cryosections were mounted on StarFrost slides (catalog # VS1117, Waldemar Knittel Glasbearbeitungs, Braunschweig, Germany).
Sections or cells were washed with PBS 1× and shortly fixated with Formalin 10% solution for 5 minutes and washed three times with PBS 1×. […] The prevalence of apoptotic nuclei was expressed as the ratio of TUNEL-positive nuclei and DAPI-stained nuclei in three different areas of the ONL per experiment. […]

Assay [3] deals with Bbs1M390R/M390R mice. The following applies: cited from earlier work.

*: point of attachment. Cbz = O=C(OCc1ccccc1)*; CH2F = FC*

Take “Z-Ala-Thr-Ala-Asp(O-methyl)-fluoromethyl-ketone (Cbz-ATAD(OMe)-CH2F; SMILES COC(=O)C[C@H](NC(=O)[C@H](C)NC(=O)[C@@H](NC(=O)[C@H](C)NC(=O)OCc1ccccc1)[C@@H](C)O)C(=O)CF) [INH, Promokine]”: in assay [1], the CHOP10 protein content result was “decrease” and the “eIF2α phosphorylation (peIF2α), protein level” value was “decrease”. Moreover, the “apoptotic rate (proportion of apoptotic photoreceptor nucleus)” value in assay [2] came out at 23%.

Take `C[C@H](CCC(=O)NCCS(=O)(=O)O)[C@H]1CC[C@H]2[C@@H]3[C@@H](O)C[C@@H]4C[C@H](O)CC[C@]4(C)[C@H]3CC[C@]12C` [TUDCA, tauroursodeoxycholic acid]: in assay [3], the retinal thickness entry is recorded as “induced retinal thickening”.
